Data published in patent US6489318B1, “Ethylidene derivatives of tricyclic carbapenems” (LEK, tovarna farmacevtskih in kemicnih izdelkov, d.d., priority 1996, dated 2002).

Each compound was assayed on β-lactamase of Escherichia coli 3.5.2.6 (assay: Hydrolysis of nitrocefin with β-lactamase in the presence of inhibitors (spectrophotometric, 495 nm)). Conditions: substrate nitrocefin 190 μmole/l; inhibitor 10 μmole/l.
Format: biochemical
Procedure: Determination of inhibitory action of the compounds of the formula I upon the enzyme β-lactamase
The inhibitory action of the compounds of the formula I was determined according to standard methodology (Bush, K. and Sykes, R. B. Methods of Enzymatic Analysis, Third Edition, Vol. 4, p. 280, Verlag Chemie GmbH, Weinheim, 1984). The method comprises a spectrophotometric quantitative (band at 495 nm) measurement of catalytic action of the enzyme β-lactamase from the E. coli EC 3.5.2.6 strain. As a substrate nitrocefin ((7R)-3-((E)-2,4-dinitrostiryl)-7-(2-thienylacetamido)-3-cefem-4-carboxylic acid) was used which has the broadest spectrum of susceptibility and sensibility. The hydrolysis of nitrocefin in the presence of an inhibitor of the enzyme β-lactamase was determined.
Hydrolysis of nitrocefin with β-lactamase of Escherichia coli 3.5.2.6 in the presence of inhibitors

Point of comparison: `CC1(C)[C@H](C(=O)O)N2C(=O)C[C@H]2S1(=O)=O` [sulbactam, reference compound], “Inhibitory activity (%)” value 50%. Against it:
- C/C=C1/C(=O)N2C(C(=O)O)=C3CCSC[C@H]3[C@H]12 [compound A, sodium (8R,9R)-10-((E)-ethylidene)-11-oxo-1-aza-6-thiatricyclo[7.2.0.0^3,8]undec-2-ene-2-carboxylate] — lower, 38%
- C/C=C1/C(=O)N2C(C(=O)[O-])=C3CCCC[C@@H]3[C@H]12.[Na+] [compound B, sodium (8S,9R)-10-((E)-ethylidene)-11-oxo-1-azatricyclo[7.2.0.0^3,8]undec-2-ene-2-carboxylate] — lower, 23%
